Test system: HCV 1b_Huh-Luc/Neo-ET cell line (bicistronic genotype 1b replicon in Huh 7 cells)
Assay: HCV replicon assay (luciferase readout)
Type: cell-based, HCV genotype 1b
Conditions: Hepatitis C virus, Huh-7, 72 h, read-out: Inhibition of HCB genotype 1b
Procedure: Biological activity of the compounds of the invention was determined using an HCV replicon assay. The HCV 1b_Huh-Luc/Neo-ET cell line persistently expressing a bicistronic genotype 1b replicon in Huh 7 cells was obtained from ReBLikon GMBH. This cell line was used to test compound inhibition using luciferase enzyme activity readout as a measurement of compound inhibition of replicon levels.
On Day 1 (the day after plating cells), each compound is added in triplicate to the cells. Plates are incubated for 72 h prior to determining luciferase levels. Enzyme activity was measured using a Bright-Glo Kit (cat. number E2620) manufactured by Promega Corporation. The following equation was used to generate a percent control value for each compound. % Control=(Compound Luciferase Level/Control Luciferase Level)*100
The EC50 value was determined using GraphPad Prism and the following equation: Y=Bottom asymptote+(Top asymptote−Bottom asymptote)/(1+10^((LogEC50−X)*HillSlope))
EC50 values of compounds are determined several times in the replicon assay to generate average EC50 values.

`COCCOc1cc(-c2cnc([C@@H]3CCCN3C(=O)[C@@H](NC(=O)OC)C(C)C)[nH]2)ccc1-c1ccc(-c2cnc([C@@H]3CCCN3C(=O)[C@@H](NC(=O)OC)C(C)C)[nH]2)cc1OCCOC` [Compound 1] and `CC[C@H](C)[C@H](NC(=O)OC)C(=O)N1CCC[C@H]1c1ncc(-c2ccc(-c3ccc(-c4cnc([C@@H]5CCCN5C(=O)[C@@H](NC(=O)OC)[C@@H](C)CC)[nH]4)cc3OCCOC)c(OCCOC)c2)[nH]1` [Compound 7] cannot be ordered by EC50: under 1 nM for the first, under 1 nM for the second.

`COCCOc1c(-c2ccc(-c3cnc([C@@H]4CCCN4C(=O)[C@@H](NC(=O)OC)C(C)C)[nH]3)cc2)ccc(-c2cnc([C@@H]3CCCN3C(=O)[C@@H](NC(=O)OC)C(C)C)[nH]2)c1OCCOC` [Compound 2] and `CC[C@H](C)[C@H](NC(=O)OC)C(=O)N1CCC[C@H]1c1ncc(-c2ccc(-c3ccc(-c4cnc([C@@H]5CCCN5C(=O)[C@@H](NC(=O)OC)C(C)C)[nH]4)cc3)c(OCCOC)c2OCCOC)[nH]1` [Compound 19] cannot be ordered by EC50: under 1 nM for the first, under 1 nM for the second.

First: CC[C@H](C)[C@H](NC(=O)OC)C(=O)N1CCC[C@H]1c1ncc(-c2ccc(-c3ccc(-c4cnc([C@@H]5CCCN5C(=O)[C@@H](NC(=O)OC)[C@@H](C)CC)[nH]4)c(OCCOC)c3OCCOC)cc2)[nH]1 [Compound 3]
Second: COCCOc1c(-c2ccc(-c3cnc([C@@H]4CCCN4C(=O)[C@@H](NC(=O)OC)[C@@H](C)OC)[nH]3)cc2)ccc(-c2cnc([C@@H]3CCCN3C(=O)[C@@H](NC(=O)OC)[C@@H](C)OC)[nH]2)c1OCCOC [Compound 12]
The EC50 of the first is lower: under 1 nM for the first, 1 to 9.9 nM for the second.

First: COCCOc1c(-c2ccc(-c3cnc([C@@H]4CCCN4C(=O)[C@@H](NC(=O)OC)C4CCCC4)[nH]3)cc2)ccc(-c2cnc([C@@H]3CCCN3C(=O)[C@@H](NC(=O)OC)C3CCCC3)[nH]2)c1OCCOC [Compound 4]
Second: COCCOc1c(-c2ccc(-c3cnc([C@@H]4CCCN4C(=O)[C@@H](NC(=O)OC)C4CCOCC4)[nH]3)cc2)ccc(-c2cnc([C@@H]3CCCN3C(=O)[C@@H](NC(=O)OC)C3CCOCC3)[nH]2)c1OCCOC [Compound 14]
The EC50 of the first is lower: under 1 nM for the first, 1 to 9.9 nM for the second. The first is the more potent here.

First: COCCOc1cc(-c2cnc([C@@H]3CCCN3C(=O)[C@H](C)NC(=O)OC)[nH]2)ccc1-c1ccc(-c2cnc([C@@H]3CCCN3C(=O)[C@H](C)NC(=O)OC)[nH]2)cc1OCCOC [Compound 6]
Second: COCCOc1c(-c2ccc(-c3cnc([C@@H]4CCCN4C(=O)[C@H](C)NC(=O)OC)[nH]3)cc2)ccc(-c2cnc([C@@H]3CCCN3C(=O)[C@H](C)NC(=O)OC)[nH]2)c1OCCOC [Compound 10]
The EC50 of the first is higher: 10 to 999 nM for the first, under 1 nM for the second.

`COCCOc1cc(-c2cnc([C@@H]3CCCN3C(=O)[C@@H](NC(=O)OC)C3CCCC3)[nH]2)ccc1-c1ccc(-c2cnc([C@@H]3CCCN3C(=O)[C@@H](NC(=O)OC)C3CCCC3)[nH]2)cc1OCCOC` [Compound 8] and `COCCOc1cc(-c2cnc([C@@H]3CCCN3C(=O)[C@@H](NC(=O)OC)C3CCCCC3)[nH]2)ccc1-c1ccc(-c2cnc([C@@H]3CCCN3C(=O)[C@@H](NC(=O)OC)C3CCCCC3)[nH]2)cc1OCCOC` [Compound 9] cannot be ordered by EC50: under 1 nM for the first, under 1 nM for the second.

First: COCCOc1c(-c2ccc(-c3cnc([C@@H]4CCCN4C(=O)[C@H](COC)NC(=O)OC)[nH]3)cc2)ccc(-c2cnc([C@@H]3CCCN3C(=O)[C@H](COC)NC(=O)OC)[nH]2)c1OCCOC [Compound 11]
Second: COCCOc1c(-c2ccc(-c3cnc([C@@H]4CCCN4C(=O)[C@@H](NC(=O)OC)C(C)C)[nH]3)cc2)ccc(-c2cnc([C@@H]3CCCN3C(=O)[C@H](C)NC(=O)OC)[nH]2)c1OCCOC [Compound 18]
The EC50 of the first is higher: 10 to 999 nM for the first, 1 to 9.9 nM for the second. The second is the more potent here.

First: COCCOc1c(-c2ccc(-c3cnc([C@@H]4CCCN4C(=O)[C@@H](NC(=O)OC)C(C)(C)C)[nH]3)cc2)ccc(-c2cnc([C@@H]3CCCN3C(=O)[C@@H](NC(=O)OC)C(C)(C)C)[nH]2)c1OCCOC [Compound 13]
Second: COCCOc1c(-c2ccc(-c3cnc([C@@H]4CCCN4C(=O)[C@@H](c4ccccc4)N(C)C)[nH]3)cc2)ccc(-c2cnc([C@@H]3CCCN3C(=O)[C@@H](c3ccccc3)N(C)C)[nH]2)c1OCCOC [Compound 15]
The EC50 of the first is higher: 1 to 9.9 nM for the first, under 1 nM for the second. The second is the more potent here.

First: COCCOc1c(-c2ccc(-c3cnc([C@@H]4CCCN4C(=O)[C@@H](c4ccccc4)N4CCCC4)[nH]3)cc2)ccc(-c2cnc([C@@H]3CCCN3C(=O)[C@@H](c3ccccc3)N3CCCC3)[nH]2)c1OCCOC [Compound 16]
Second: COCCOc1c(-c2ccc(-c3cnc([C@@H]4CCCN4C(=O)[C@H](NS(C)(=O)=O)c4ccccc4)[nH]3)cc2)ccc(-c2cnc([C@@H]3CCCN3C(=O)[C@H](NS(C)(=O)=O)c3ccccc3)[nH]2)c1OCCOC [Compound 17]
The EC50 of the first is higher: 1 to 9.9 nM for the first, under 1 nM for the second. The second is the more potent here.
